Experimental data: US10555987B2, “GHRH agonists for the treatment of ischemic disorders” (UNIVERSITY OF MIAMI, priority 2012, dated 2020)
“Also recorded” adds a separate entry of the source. Non-standard residues stand in square brackets, D forms with d. Residues, ends and D or L forms follow the SMILES beside them. *: point of attachment. Phe(F5) = N[C@@H](Cc1c(F)c(F)c(F)c(F)c1F)C(=O)O; Desaminotyrosyl = O=C(CCc1ccc(O)cc1)*; NMeY = CN[C@@H](Cc1ccc(O)cc1)C(=O)O; Agmatine = N=C(N)NCCCCN*; Nle = CCCC[C@H](N)C(=O)O; Orn = NCCC[C@H](N)C(=O)O; Abu = CC[C@H](N)C(=O)O; GABA = NCCCC(=O)O

Experiments:
GHRH receptor [1] = biological target: T1, GHRH receptor (Homo sapiens, UniProt Q02643); test: Receptor binding in vitro, 125I-labeled [His1,Nle27]-hGHRH(1-32)NH2, membrane receptors of human anterior pituitary cells (Table 14); conditions: for Relative affinity (Binding potency) compared to JI-38: JI-38 = 1; for GHRH receptor binding affinity (in words): compared to JI-38; for Relative affinity (Binding potency) compared to hGHRH(1-29): hGHRH(1-29)NH2 = 1
T1 sequence (Q02643 23-423): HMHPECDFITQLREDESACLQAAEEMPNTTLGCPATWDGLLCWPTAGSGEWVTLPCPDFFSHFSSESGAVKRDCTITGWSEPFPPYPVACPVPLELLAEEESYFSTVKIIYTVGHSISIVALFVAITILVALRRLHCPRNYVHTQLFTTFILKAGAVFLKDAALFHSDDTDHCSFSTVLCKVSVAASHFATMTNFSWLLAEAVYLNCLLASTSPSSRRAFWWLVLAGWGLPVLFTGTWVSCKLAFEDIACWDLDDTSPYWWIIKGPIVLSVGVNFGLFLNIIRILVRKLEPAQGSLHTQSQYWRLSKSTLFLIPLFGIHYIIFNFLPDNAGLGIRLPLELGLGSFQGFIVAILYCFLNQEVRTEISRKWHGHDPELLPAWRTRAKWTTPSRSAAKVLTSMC

[2] = tested on: myocardial infarction (Fisher-344 rats); test: Serial echocardiography after MI, compared to JI-38 (Example 15, Table 15); assay type: in vivo, rat; set-up: key to LVEDD: Left Ventricular End Diastolic Diameter / LVESD: Left Ventricular End Systolic Diameter / VD: Ventricular Diastole / VS: Ventricular Systole / EF: Ejection Fraction / FS: Fraction Shortening: ↓: downward arrow denotes lower than JI-38; ↑: upward arrow denotes greater than JI-38; =denotes same as JI-38; ⬇⬇: double arrow denotes greater effect; ⬆⬆: double arrow denotes greater effect; conditions: in comparison to JI-38
Summary of the method: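 Female 6-month-old Fisher-344 rats with permanent left coronary artery ligation received placebo, JI-38 or GHRH agonists subcutaneously twice daily from 2 h post-surgery (10 per group). Under 2% isoflurane, M-mode LVEDD, LVESD and FS plus long-axis EF were measured at baseline, 2 days, 1, 2 and 4 weeks.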

GHRH receptor [3] = biological target: T1, GHRH receptor; test: GHRH receptor binding, competition with 125I-labeled JV-1-42, human pituitary membrane homogenates (Table 7); set-up: Normal human pituitaries were purchased from the National Hormone and Peptide Program; tissue National Hormone and Peptide Program (A.F. Parlow, Harbor-UCLA Medical Center, Torrance, Calif.); host or cells: normal human pituitary, membrane fraction; conditions: JI-38 = 1, Table 7
Excerpt: Normal human pituitaries were purchased from the National Hormone and Peptide Program (A.F. Parlow, Los Angeles, County Harbor-UCLA Medical Center, Torrance, Calif.).

GH release = test: GH releasing potency in vivo, subcutaneous administration (Example 14, Table 12); set-up: species or system rat; conditions: for Serum GH level at selected time after injection (ng/ml), 0 min / Serum GH level at selected time after injection (ng/ml), 15 min / Serum GH level at selected time after injection (ng/ml), 30 min: male rats, dose 3 μg/kg, mean ± SEM; for Relative GH-releasing potency compared to JI-38 in s.c. tests (fold, range over time points): time not specified
Summary of the method: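 Potency is expressed relative to GHRH(1-29)NH2 and JI-38 (each = 1), via equivalent GHRH(1-29)NH2 dose read from a standard curve. Peptides in 5% mannitol given i.v. or s.c. to anaesthetised male Sprague-Dawley rats (200-250 g); serum GH measured by ELISA at selected times.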

Row | Relative affinity (Binding potency) compared to hGHRH(1-29) (GHRH receptor [1]) | Relative affinity (Binding potency) vs JI-38 (GHRH receptor [3]) | Compound | Relative affinity (Binding potency) compared to JI-38 (GHRH receptor [1]) | GHRH receptor binding affinity (in words) (GHRH receptor [1]) | EF: Ejection Fraction [2] | FS: Fraction Shortening [2] | LVEDD: Left Ventricular End Diastolic Diameter [2] | LVESD: Left Ventricular End Systolic Diameter [2] | VD: Ventricular Diastole [2] | VS: Ventricular Systole [2] | Serum GH level at selected time after injection (ng/ml), 0 min (GH release; s.c.) [ng/mL] | Serum GH level at selected time after injection (ng/ml), 15 min (GH release; s.c.) | Serum GH level at selected time after injection (ng/ml), 30 min (GH release; s.c.) [ng/mL] | Relative potency compared to GHRH(1-29), 15 min (GH release; s.c.) | Relative potency compared to JI-38, 15 min (GH release; s.c.) | Relative potency compared to GHRH(1-29), 30 min (GH release; s.c.) | Relative potency compared to JI-38, 30 min (GH release; s.c.) | potency as compared to JI-38 in both i.v. and s.c. tests (GH release) | further results
1 | 3.54 | 13.18 | CCCC[C@H](NC(=O)[C@@H](NC(=O)[C@H](CC(=O)O)NC(=O)[C@H](CCC(N)=O)NC(=O)[C@H](CC(C)C)NC(=O)[C@H](CC(C)C)NC(=O)[C@H](CCCN)NC(=O)[C@H](CCCNC(=N)N)NC(=O)[C@H](C)NC(=O)[C@H](CO)NC(=O)[C@H](CC(C)C)NC(=O)[C@H](CCC(N)=O)NC(=O)[C@H](CC)NC(=O)[C@H](CC(C)C)NC(=O)[C@@H](NC(=O)[C@H](CCCN)NC(=O)[C@H](CCCNC(=N)N)NC(=O)[C@H](Cc1ccc(O)cc1)NC(=O)[C@H](CO)NC(=O)[C@H](CC(N)=O)NC(=O)[C@@H](NC(=O)[C@H](Cc1c(F)c(F)c(F)c(F)c1F)NC(=O)[C@@H](NC(=O)[C@H](C)NC(=O)[C@H](CC(=O)O)NC(=O)[C@@H](C)NC(=O)CCc1ccc(O)cc1)[C@@H](C)CC)[C@@H](C)O)C(C)C)[C@@H](C)CC)C(=O)N[C@@H](CO)C(=O)N[C@@H](CCCNC(=N)N)C(=O)NCCCC(N)=O [Peptide P-25502, [Dat^1, D-Ala^2, Fpa5^6, Orn^12, Abu^15, Orn^21, Nle^27, Gab^30]hGHRH(1-30)NH2] (Desaminotyrosyl-[dA]DAI[Phe(F5)]TNSYR[Orn]VL[Abu]QLSAR[Orn]LLQDI[Nle]SR[GABA]-NH2) | 1.27 |  | = | = | = | = | ↑ | ↑ | 61.7 ± 8.1 | 266.7 ± 21^ ng/ml | 153.2 ± 33.3 | 76.5 | 1.21 | 152.3 | 1.36 | increased potency as compared to JI-38 | Relative GH-releasing potency compared to JI-38 in s.c. tests (fold, range over time points) (GH release; s.c., listed as MR-502): 1.2-1.4
2 | 10.30 | 27.19 | CCCC[C@H](NC(=O)[C@@H](NC(=O)[C@H](CC(=O)O)NC(=O)[C@H](CCC(N)=O)NC(=O)[C@H](CC(C)C)NC(=O)[C@H](CC(C)C)NC(=O)[C@H](CCCN)NC(=O)[C@H](CCCNC(=N)N)NC(=O)[C@H](C)NC(=O)[C@H](CO)NC(=O)[C@H](CC(C)C)NC(=O)[C@H](CCC(N)=O)NC(=O)[C@H](CC)NC(=O)[C@H](CC(C)C)NC(=O)[C@@H](NC(=O)[C@H](CCCN)NC(=O)[C@H](CCCNC(=N)N)NC(=O)[C@H](Cc1ccc(O)cc1)NC(=O)[C@H](CO)NC(=O)[C@H](CCC(N)=O)NC(=O)[C@@H](NC(=O)[C@H](Cc1ccccc1)NC(=O)[C@@H](NC(=O)[C@H](C)NC(=O)[C@H](CC(=O)O)NC(=O)[C@@H](C)NC(=O)[C@H](Cc1ccc(O)cc1)NC)[C@@H](C)CC)[C@@H](C)O)C(C)C)[C@@H](C)CC)C(=O)N[C@@H](CC(=O)O)C(=O)N[C@@H](CCCNC(=N)N)C(=O)NC [Peptide P-27403, [N—Me-Tyr^1, D-Ala^2, Gln^8, Orn^12, Abu^15, Orn^21, Nle^27, Asp^28]hGHRH(1-29)NH—CH3] (H-[NMeY][dA]DAIFTQSYR[Orn]VL[Abu]QLSAR[Orn]LLQDI[Nle]DR-NHMe) |  | highest GH-releasing potency and binding affinity | = | ↓ | ↑ | ↑ | ↑ | ↑ | 39.4 ± 5.3 | 608.7 ± 35.3 ng/mL | 281.7 ± 18.6 | 223.8 |  | 448.9 |  | increased potency as compared to JI-38 | Relative affinity (Binding potency) compared to JI-38 (GHRH receptor [1]; listed as MR-403): 3.69; Relative GH-releasing potency compared to JI-38 in s.c. tests (fold, range over time points) (GH release; s.c.): 3.6-4.0; GH-releasing potency after s.c. administration (in words) (GH release; s.c., listed as MR-403): highest GH-releasing potency; also recorded: significantly higher potencies at 30 minutes than at 15 minutes

Row | Compound | Relative affinity (Binding potency) compared to hGHRH(1-29) (GHRH receptor [1]) | Relative affinity (Binding potency) vs JI-38 (GHRH receptor [3]) | Relative affinity (Binding potency) compared to JI-38 (GHRH receptor [1]) | GHRH receptor binding affinity (in words) (GHRH receptor [1]) | EF: Ejection Fraction [2] | FS: Fraction Shortening [2] | LVEDD: Left Ventricular End Diastolic Diameter [2] | LVESD: Left Ventricular End Systolic Diameter [2] | VD: Ventricular Diastole [2] | VS: Ventricular Systole [2] | Serum GH level at selected time after injection (ng/ml), 0 min (GH release; s.c.) [ng/mL] | Serum GH level at selected time after injection (ng/ml), 15 min (GH release; s.c.) | Serum GH level at selected time after injection (ng/ml), 30 min (GH release; s.c.) [ng/mL] | Relative potency compared to GHRH(1-29), 15 min (GH release; s.c.) | Relative potency compared to JI-38, 15 min (GH release; s.c.) | Relative potency compared to GHRH(1-29), 30 min (GH release; s.c.) | Relative potency compared to JI-38, 30 min (GH release; s.c.) | potency as compared to JI-38 in both i.v. and s.c. tests (GH release) | further results
3 | CCCC[C@H](NC(=O)[C@@H](NC(=O)[C@H](CC(=O)O)NC(=O)[C@H](CCC(N)=O)NC(=O)[C@H](CC(C)C)NC(=O)[C@H](CC(C)C)NC(=O)[C@H](CCCN)NC(=O)[C@H](CCCNC(=N)N)NC(=O)[C@H](C)NC(=O)[C@H](CO)NC(=O)[C@H](CC(C)C)NC(=O)[C@H](CCC(N)=O)NC(=O)[C@H](CC)NC(=O)[C@H](CC(C)C)NC(=O)[C@@H](NC(=O)[C@H](CCCN)NC(=O)[C@H](CCCNC(=N)N)NC(=O)[C@H](Cc1ccc(O)cc1)NC(=O)[C@H](CO)NC(=O)[C@H](CC(N)=O)NC(=O)[C@@H](NC(=O)[C@H](Cc1ccccc1)NC(=O)[C@@H](NC(=O)[C@H](C)NC(=O)[C@H](CC(=O)O)NC(=O)[C@@H](C)NC(=O)[C@H](Cc1ccc(O)cc1)NC)[C@@H](C)CC)[C@@H](C)O)C(C)C)[C@@H](C)CC)C(=O)N[C@@H](CC(=O)O)C(=O)NCCCCNC(=N)N [Peptide P-20367, [N—Me-Tyr^1, D-Ala^2, Orn^12, Abu^15, Orn^21, Nle^27, Asp^28, Agm^29]hGHRH(1-29)NH2] (H-[NMeY][dA]DAIFTNSYR[Orn]VL[Abu]QLSAR[Orn]LLQDI[Nle]D-Agmatine) | 7.01 | 2.56 | 2.51 | improved receptor binding affinity | = | = | ↑ | ↑ | ↑ | ↑ | 41.1 ± 5.6 | 244.0 ± 25.1 ng/mL | 141.2 ± 12.3 | 68.1 | 1.08 | 131.7 | 1.18 |  | 
